Numbers after ± are expanded uncertainties.
Assay: molar heat capacity at constant pressure
Conditions: 100 kPa, Crystal, DSC

O=C(O)c1cc(O)c(O)c(O)c1 [3,4,5-trihydroxybenzoic acid]
Conditions | molar heat capacity at constant pressure [J/K/mol]
263.15 K | 178.8 ± 8.3
264.15 K | 179.31 ± 8.3
265.15 K | 179.82 ± 8.3
266.15 K | 180.5 ± 8.4
267.15 K | 181.18 ± 8.4
268.15 K | 181.86 ± 8.4
269.15 K | 182.54 ± 8.5
270.15 K | 183.05 ± 8.5
271.15 K | 183.73 ± 8.5
272.15 K | 184.41 ± 8.6
273.15 K | 184.92 ± 8.6
274.15 K | 185.77 ± 8.6
275.15 K | 185.6 ± 8.6
276.15 K | 186.96 ± 8.7
277.15 K | 187.3 ± 8.7
278.15 K | 188.15 ± 8.7
279.15 K | 188.49 ± 8.7
280.15 K | 189 ± 8.8
281.15 K | 189.34 ± 8.8
282.15 K | 189.85 ± 8.8
283.15 K | 190.36 ± 8.8
284.15 K | 191.21 ± 8.9
285.15 K | 191.55 ± 8.9
286.15 K | 192.24 ± 8.9
287.15 K | 193.09 ± 8.9
288.15 K | 193.6 ± 9
289.15 K | 194.28 ± 9
290.15 K | 194.79 ± 9
291.15 K | 195.64 ± 9.1
292.15 K | 196.32 ± 9.1
293.15 K | 197 ± 9.1
294.15 K | 197.51 ± 9.2
295.15 K | 198.19 ± 9.2
296.15 K | 198.7 ± 9.2
297.15 K | 199.38 ± 9.2
298.15 K | 199.55 ± 9.2
299.15 K | 200.06 ± 9.3
300.15 K | 200.57 ± 9.3
301.15 K | 201.25 ± 9.3
302.15 K | 201.76 ± 9.4
303.15 K | 202.44 ± 9.4
304.15 K | 203.12 ± 9.4
305.15 K | 203.8 ± 9.4
306.15 K | 204.31 ± 9.5
307.15 K | 204.65 ± 9.5
308.15 K | 205.33 ± 9.5
309.15 K | 206.18 ± 9.6
310.15 K | 206.7 ± 9.6
311.15 K | 207.04 ± 9.6
312.15 K | 207.38 ± 9.6
313.15 K | 208.23 ± 9.7
314.15 K | 208.91 ± 9.7
315.15 K | 209.08 ± 9.7
316.15 K | 209.76 ± 9.7
317.15 K | 210.61 ± 9.8
318.15 K | 211.12 ± 9.8
319.15 K | 211.46 ± 9.8
320.15 K | 211.8 ± 9.8
321.15 K | 212.14 ± 9.8
322.15 K | 212.99 ± 9.9
323.15 K | 211.97 ± 9.8
324.15 K | 212.22 ± 9.8
325.15 K | 212.9 ± 9.9
326.15 K | 213.59 ± 9.9
327.15 K | 214.27 ± 9.9
328.15 K | 214.61 ± 9.9
329.15 K | 215.09 ± 10
330.15 K | 215.6 ± 10
331.15 K | 216.11 ± 10
332.15 K | 216.39 ± 10
333.15 K | 216.9 ± 10
334.15 K | 217.47 ± 10
335.15 K | 217.92 ± 10
336.15 K | 217.16 ± 10
337.15 K | 217.71 ± 10
338.15 K | 218.35 ± 10
339.15 K | 218.99 ± 10
340.15 K | 219.58 ± 10
341.15 K | 220.09 ± 10
342.15 K | 220.69 ± 10
343.15 K | 221.58 ± 10
344.15 K | 220.47 ± 10
345.15 K | 220.64 ± 10
346.15 K | 221.55 ± 10
347.15 K | 222.29 ± 10
348.15 K | 222.74 ± 10
349.15 K | 223.31 ± 10
350.15 K | 223.76 ± 10
351.15 K | 224.44 ± 10
352.15 K | 225.58 ± 10
353.15 K | 224.69 ± 10
354.15 K | 225.11 ± 10
355.15 K | 225.75 ± 10
356.15 K | 226.47 ± 10
357.15 K | 226.9 ± 11
358.15 K | 227.28 ± 11
359.15 K | 227.92 ± 11
360.15 K | 228.68 ± 11
361.15 K | 229.15 ± 11
362.15 K | 229.7 ± 11
363.15 K | 229.83 ± 11
364.15 K | 230.21 ± 11
365.15 K | 230.81 ± 11
366.15 K | 231.19 ± 11
367.15 K | 233.29 ± 11
368.15 K | 233.91 ± 11
369.15 K | 234.54 ± 11
370.15 K | 234.94 ± 11
371.15 K | 235.6 ± 11
372.15 K | 236.24 ± 11
373.15 K | 236.91 ± 11
374.15 K | 237.55 ± 11
375.15 K | 238.16 ± 11
376.15 K | 238.86 ± 11
377.15 K | 239.45 ± 11
378.15 K | 240.16 ± 11
379.15 K | 240.81 ± 11
380.15 K | 241.44 ± 11
381.15 K | 242.11 ± 11
382.15 K | 242.78 ± 11
383.15 K | 243.42 ± 11
384.15 K | 244.06 ± 11
385.15 K | 244.7 ± 11
386.15 K | 245.37 ± 11
387.15 K | 246.02 ± 11
388.15 K | 246.65 ± 11
389.15 K | 247.32 ± 11
390.15 K | 248.01 ± 12
391.15 K | 248.58 ± 12
392.15 K | 249.14 ± 12
393.15 K | 249.71 ± 12
394.15 K | 250.27 ± 12
395.15 K | 250.84 ± 12
396.15 K | 251.4 ± 12
397.15 K | 251.97 ± 12
398.15 K | 252.44 ± 12
399.15 K | 253.11 ± 12
400.15 K | 253.68 ± 12
401.15 K | 254.24 ± 12
402.15 K | 254.81 ± 12
403.15 K | 255.1 ± 12
404.15 K | 255.93 ± 12
405.15 K | 256.5 ± 12
406.15 K | 257.08 ± 12
407.15 K | 257.65 ± 12
408.15 K | 258.22 ± 12
409.15 K | 258.78 ± 12
410.15 K | 259.34 ± 12
411.15 K | 259.92 ± 12
412.15 K | 260.74 ± 12
413.15 K | 261.25 ± 12
414.15 K | 261.59 ± 12
415.15 K | 261.81 ± 12
416.15 K | 262.27 ± 12
417.15 K | 262.78 ± 12
418.15 K | 263.53 ± 12
419.15 K | 264.31 ± 12
420.15 K | 265.03 ± 12
421.15 K | 266.54 ± 12
422.15 K | 266.57 ± 12
423.15 K | 267.3 ± 12
424.15 K | 268.08 ± 12
425.15 K | 268.84 ± 12
426.15 K | 269.59 ± 12
427.15 K | 270.33 ± 13
428.15 K | 271.11 ± 13
429.15 K | 271.85 ± 13
430.15 K | 272.62 ± 13
431.15 K | 273.38 ± 13
432.15 K | 274.32 ± 13
433.15 K | 274.91 ± 13
434.15 K | 275.59 ± 13
435.15 K | 275.85 ± 13
436.15 K | 276.19 ± 13
437.15 K | 276.7 ± 13
438.15 K | 277.38 ± 13
439.15 K | 277.72 ± 13
440.15 K | 278.23 ± 13
441.15 K | 278.83 ± 13
442.15 K | 279.51 ± 13
443.15 K | 280.61 ± 13
444.15 K | 280.87 ± 13
445.15 K | 281.12 ± 13
446.15 K | 281.63 ± 13
447.15 K | 282.23 ± 13
448.15 K | 283.16 ± 13
449.15 K | 283.84 ± 13
450.15 K | 284.18 ± 13
451.15 K | 285.04 ± 13
452.15 K | 286.14 ± 13
453.15 K | 286.82 ± 13
454.15 K | 287.67 ± 13
455.15 K | 288.44 ± 13
456.15 K | 289.03 ± 13
457.15 K | 289.8 ± 13
458.15 K | 290.56 ± 13
459.15 K | 291.24 ± 14
460.15 K | 292.18 ± 14
461.15 K | 292.86 ± 14
462.15 K | 293.2 ± 14
463.15 K | 293.8 ± 14
464.15 K | 294.99 ± 14
465.15 K | 295.67 ± 14
466.15 K | 296.35 ± 14
467.15 K | 297.03 ± 14
468.15 K | 297.96 ± 14
469.15 K | 298.9 ± 14
470.15 K | 300.18 ± 14
471.15 K | 301.03 ± 14

— the NIST ThermoML archive (doi:10.1016/j.jct.2018.09.027)
